Experimental data taken from patent US5294720A, “1,4-diamino-2,3-dihydroxybutanes” (The DuPont Merck Pharmaceutical Co., priority 1991, dated 1994).
pIC50: −log10 of the molar value. Values after ≈ are worked out from the molar mass of the structure shown. Where a name gives a salt, the structure may show the parent alone. Read-outs that look alike come from different tables or passages of the source.

Key:
HIV protease = molecular target: T1, HIV protease (Human immunodeficiency virus type 1 group M subtype B, UniProt P04585); assay: Cell free protease inhibition assay (HIV gag polyprotein cleavage); format: biochemical; details: Table XVII, unit inferred, IC50 per method; for IC50: read-out: Cell Free Assay (converted)
T1 construct: inclusion bodies of E. coli harboring plasmid containing HIV protease under the control of the T7 promotor; made in house; host or cells: E. coli (A: crude lysate, lac promotor)
Text: HIV gag polyprotein corresponding to all of p17 and 78 amino acids of p24, produced by in vitro translation using rabbit reticulocyte lysate and mRNA prepared in vitro from plasmid encoding full length gag polyprotein linerized with the restriction enzyme Pst 1. (See S. Erickson-Viitanen et al., Aids Research and Human Retroviruses, 5 (6), 577 (1989) for plasmid construction, and basis for assay).
Source of protease: Either (A) crude E. coli lysate of bacteria harboring a plasmid containing HIV protease under the control of the lac promotor, used at a final concentration of 0.5 mg/ml, or (B) inclusion bodies of E. coli harboring plasmid containing HIV protease under the control of the T7 promotor (Cheng et al., Gene, in press (1990). Such inclusion bodies were solubilized in 8M urea, 50 mM Tris pH 8.0. Protease activity was recovered by dilution of the inclusion bodies 20-fold in buffer containing 50 mM Sodium Acetate, pH 5.5, 1 mM EDTA, 10% glycerol and 5% ethylene glycol. This protease source was used at a final concentration of 0.00875 mg/ml.
Inhibitory compounds were dissolved in sufficient DMSO to make a 25 mM stock concentration. All further dilutions were done in DMSO.
Into sterile test tubes were placed the following:
14 ul HIV protease in Phosphate Buffered Saline (Gibco)
5 ul of in vitro translation products.
Reactions were incubated at 30° C., then quenched by the addition of Sample buffer. See U. K. Laemmli, Nature, 1970, 227:680-685.
One fourth of each sample was analyzed on an 8-16% gradient denaturing acrylamide gel (Novex, Inc), according to Laemmli. Following electrophoresis, gels were fixed, impregnated with Enhance (Du Pont NEN, Boston, Mass.) and dried according to manufacturers instructions (NEN). Dried fluorographs were exposed to film and/or quantitated using an Ambis radioanalytic scanner.
Each group of test compounds was compared to the values obtained for pepstatin, a well known inhibitor of acid proteases. Inhibitory concentration for 50% inhibition (IC50) is determined from plots of log concentration inhibitor versus % inhibition of protease activity.
Biological Activity: IC50 is the concentration necessary for reducing the activity of the enzyme by 50%.

HIV(3b) or HIV(Rf) = assay: HIV cell assay (HIV low multiplicity assay, protection of MT-2 cells from virus induced cell death, XTT); format: cell-based, Human immunodeficiency virus; details: for Cell Assay IC50: unit not given
Protocol: […], a human T-cell line, was cultured in RPMI medium supplemented with 5% (v/v) heat inactivated fetal calf serum (FCS), L-glutamine and gentamycin (GIBCO). Human immunodeficiency virus strains HIV(3b) and HIV (Rf) were propagated in H-9 cells in RPMI with 5% FCS. XTT, benzene-sulfonic acid, 3,3'-[1-[(phenylamino)carbonyl]-3,4-tetrazolium]bis(4-methoxy-6-nitro)-, sodium salt, was obtained from Starks Associates, Inc.
Test compounds were dissolved in dimethyl-sulfoxide to 5 mg/ml and serially diluted into RPMI medium to ten times the desired final concentration. MT-2 cells (5×10E4/0.1 ml) were added to each well of a 96 well culture plate and 0.02 ml of the appropriate test compound solution was added to the cells such that each compound concentration was present in two wells. The cells and compounds were allowed to sit for 30 minutes at room temperature. HIV(3b) or HIV(Rf) (~5×10E5 plaque forming units/ml) was diluted in medium and added to the cell and compound mixtures to give a multiplicity of infection of 0.01 plaque forming unit/cell. The mixtures were incubated for 7 days at 36° C., during which time the virus replicated and caused the death of unprotected cells. The percentage of cells protected from virus induced cell death was determined by the degree of metabolism of the tetrazolium dye, XTT. In living cells, XTT was metabolized to a colored formazan product which was quantitated spectrophoto-metrically at […]. The amount of colored formazan was proportional to the number of cells protected from virus by the test compound. The concentration of compound protecting either 50% (IC50) or 90% (IC90) with respect to an uninfected cell culture was determined.

[1] = Human immunodeficiency virus 1, MT2, Table XVII, unit inferred, HIV in MT-2 cells, read-out: Cell Assay IC90
[2] = Human immunodeficiency virus 1, MT2, Table XVII, unit inferred, HIV in MT-2 cells, read-out: Cell Assay IC50

Structure (SMILES)	IC50 (HIV protease)	also measured
CSCCC(NC(=O)OC(C)(C)C)C(O)C(O)C(CCSC)NC(=O)OC(C)(C)C (stereo not shown) [Example 1A]	25.6 µM	IC90 (HIV(3b) or HIV(Rf); [1]): 6 µg/mL (≈ 12.8 µM); Cell Assay IC50 (HIV(3b) or HIV(Rf); Table XVII, HIV in MT-2 cells): 2
CSCCC(NC(=O)OC(C)(C)C)C(O)C(O)C(CCSC)NC(=O)OC(C)(C)C (stereo not shown) [Example 1B]	78.9 µM	Cell Assay IC50 (HIV(3b) or HIV(Rf); Table XVII, HIV in MT-2 cells): 5
CC(C)(C)OC(=O)N[C@@H](Cc1ccccc1)[C@H](O)[C@@H](O)[C@H](Cc1ccccc1)NC(=O)OC(C)(C)C [Example 2A, Bis(1,1-dimethylethyl) (2,3-dihydroxy-1,4-(phenylmethyl)-1,4-butanediyl)biscarbamate (1S,2S,3S,4S)]	24 µM	IC50 (HIV(3b) or HIV(Rf); [2]): 10 µg/mL (≈ 20 µM); IC90 (HIV(3b) or HIV(Rf); [1]): 30 µg/mL (≈ 59.9 µM)
CC(C)(C)OC(=O)N[C@@H](Cc1ccccc1)[C@@H](O)[C@H](O)[C@H](Cc1ccccc1)NC(=O)OC(C)(C)C [Example 2B]	0.34 µM	IC50 (HIV(3b) or HIV(Rf); [2]): 1.9 µg/mL (≈ 3.8 µM); IC90 (HIV(3b) or HIV(Rf); [1]): 3 µg/mL (≈ 5.99 µM)
CC(C)(C)OC(=O)N[C@@H](Cc1ccccc1)[C@H](O)[C@H](O)[C@H](Cc1ccccc1)NC(=O)OC(C)(C)C [Example 2C, Bis(1,1-dimethylethyl) (2,3-dihydroxy-1,4-(phenylmethyl)-1,4-butanediyl)biscarbamate (1S,2S,3R,4S)]	61.9 µM	–
CC(C)(C)OC(=O)NCC(O)C(O)CNC(=O)OC(C)(C)C (stereo not shown) [Example 3, Bis(1,1-dimethylethyl) (2,3-dihydroxy-1,4-butanediyl)biscarbamate]	1200 µM	–
CC(NC(=O)OC(C)(C)C)C(O)C(O)C(C)NC(=O)OC(C)(C)C (stereo not shown) [Example 4, Bis(1,1-dimethylethyl) (2,3-dihydroxy-1,4-dimethyl-1,4-butanediyl)biscarbamate]	1250 µM	–
CC(C)C(NC(=O)OC(C)(C)C)C(O)C(O)C(NC(=O)OC(C)(C)C)C(C)C (stereo not shown) [Example 5, Bis(1,1-dimethylethyl) (2,3-dihydroxy-1,4-(1-methylethyl)-1,4-butanediyl)biscarbamate]	161 µM	–
CC(C)CC(NC(=O)OC(C)(C)C)C(O)C(O)C(CC(C)C)NC(=O)OC(C)(C)C (stereo not shown) [Example 6, Bis(1,1-dimethylethyl) (2,3-dihydroxy-1,4-(2-methylpropyl)-1,4-butanediyl)biscarbamate]	11.1 µM	–
CC(C)(C)OC(=O)N1CCCC1C(O)C(O)C1CCCN1C(=O)OC(C)(C)C (stereo not shown) [Example 7, Bis(1,1-dimethylethyl) 2,2'-(1,2-dihydroxy-1,2-ethanediyl)-1-bis(pyrrolidinecarboxylate)]	1250 µM	–
CC(C)(C)OC(=O)NC(c1ccccc1)C(O)C(O)C(NC(=O)OC(C)(C)C)c1ccccc1 (stereo not shown) [Example 8, Bis (1,1-dimethylethyl) (2,3-dihydroxy-1,4-diphenyl-1,4-butanediyl)biscarbamate]	1250 µM	–
O=C(NC(Cc1ccccc1)C(O)C(O)C(Cc1ccccc1)NC(=O)OCc1ccccc1)OCc1ccccc1 (stereo not shown) [Example 9]	0.914 µM	–
CC(C)(C)OC(=O)NC(CCc1ccccc1)C(O)C(O)C(CCc1ccccc1)NC(=O)OC(C)(C)C (stereo not shown) [Example 10, Bis(1,1-dimethylethyl) (2,3-dihydroxy-1,4-(2-phenylmethyl)-1,4-butanediyl)biscarbamate]	1130 µM	–
CC(C)(C)OC(=O)NC(Cc1ccc(F)cc1)C(O)C(O)C(Cc1ccc(F)cc1)NC(=O)OC(C)(C)C (stereo not shown) [Example 11]	37.3 µM	–
CC(C)(C)OC(=O)NC(Cc1ccc(I)cc1)C(O)C(O)C(Cc1ccc(I)cc1)NC(=O)OC(C)(C)C (stereo not shown) [Example 12]	5.45 µM	–
CC(C)(C)OC(=O)NC(Cc1ccc(O)cc1)C(O)C(O)C(Cc1ccc(O)cc1)NC(=O)OC(C)(C)C (stereo not shown) [Example 13, Bis(1,1-dimethylethyl) (2,3-dihydroxy-1,4-(4-hydroxyphenyl)methyl-1,4-butaneidyl)biscarbamate]	6.2 µM	IC50 (HIV(3b) or HIV(Rf); [2]): 2.3 µg/mL (≈ 4.32 µM); IC90 (HIV(3b) or HIV(Rf); [1]): 25 µg/mL (≈ 46.9 µM)
CC(=O)N[C@@H](Cc1ccccc1)[C@@H](O)[C@H](O)[C@H](Cc1ccccc1)NC(C)=O [Example 14, N,N'-((2,3-dihydroxy-1,4-(phenylmethyl)-1,4-butanediyl))bisacetamide]	1250 µM	–
N[C@@H](Cc1ccccc1)[C@H](O)[C@@H](O)[C@@H](N)Cc1ccccc1 [Example 15, 2,5-Diamino-1,6-diphenyl-3,4-hexanediol dihydrochloride]	866 µM	–
N[C@@H](Cc1ccccc1)[C@@H](O)[C@H](O)[C@@H](N)Cc1ccccc1 [Example 16, 2,5-Diamino-1,6-diphenyl-3,4-hexanediol dihydrochloride]	866 µM	–
CC(N)C(O)C(O)C(C)N (stereo not shown) [Example 17, 2,5-Diamino-3,4-hexanediol dihydrochloride]	1260 µM	–
CC(NC(=O)C(NC(=O)OC(C)(C)C)C(C)O)C(=O)NC(C(=O)NC(C)C(=O)NC(Cc1ccccc1)C(O)C(O)C(Cc1ccccc1)NC(=O)C(C)NC(=O)C(NC(=O)C(C)NC(=O)C(NC(=O)OC(C)(C)C)C(C)O)C(C)O)C(C)O (stereo not drawn) [Example 18, Bis(Boc-Thr-Ala-Thr-Ala), N,N'((2,3-dihydroxy-1,4-(phenylmethyl)-1,4-butanediyl))biscarbamate]	–	pIC50 (HIV protease; read-out: Cell Free Assay): 5.71; IC50 (HIV(3b) or HIV(Rf); Human immunodeficiency virus 1, MT2, read-out: Cell Assay IC50): 6 µg/mL (≈ 5.04 µM); IC90 (HIV(3b) or HIV(Rf); Human immunodeficiency virus 1, MT2, read-out: Cell Assay IC90): 12 µg/mL (≈ 10.1 µM)
CC[C@H](C)[C@H](NC(=O)Cc1ccccn1)C(=O)N[C@@H](Cc1ccccc1)[C@@H](O)[C@H](O)[C@H](Cc1ccccc1)NC(=O)[C@@H](NC(=O)Cc1ccccn1)[C@@H](C)CC [Example 20, 2,5-(N-2-Pyridylacetyl-L-Ile)diamino-1,6-diphenyl-3,4-hexanediol]	0.0131 µM	IC50 (HIV(3b) or HIV(Rf); [2]): < 1 µg/mL; IC90 (HIV(3b) or HIV(Rf); [1]): < 1 µg/mL
CCC(C)C(NC(=O)Cc1ccccn1)C(=O)NC(Cc1ccccc1)C(O)C(O)C(Cc1ccccc1)NC(=O)C(NC(=O)Cc1ccccn1)C(C)CC [Example 21, 2,5-(N-2-Pyridyl-L-Ile,N'-2-pyridyl-D-Ile)diamino-1,6-diphenyl-3,4-hexanediol]	0.00261 µM	IC50 (HIV(3b) or HIV(Rf); [2]): 6 µg/mL (≈ 7.84 µM)
